Results published in publication PMC10515640, “Structure-Based Optimization of Covalent, Small-Molecule Stabilizers of the 14-3-3σ/ERα Protein–Protein Interaction from Nonselective Fragments” (Journal of the American Chemical Society, 2023).

Tests used:
[1] = target: T1, 14-3-3σ (Homo sapiens, UniProt P31947); assay: Mass spectrometry dose response, compound binding to 14-3-3σ in the absence of peptide (apo); details: 100 nM compound, 100 nM 14-3-3σ
T1 construct: The 14-3-3 σ isoform (full-length for mass spectrometry and fluorescence anisotropy assays, ΔC for crystallography); made in house; host or cells: E. coli Rosetta 2(DE3)pLysS, pPROEX HTb vector
T1 sequence (P31947 1-248): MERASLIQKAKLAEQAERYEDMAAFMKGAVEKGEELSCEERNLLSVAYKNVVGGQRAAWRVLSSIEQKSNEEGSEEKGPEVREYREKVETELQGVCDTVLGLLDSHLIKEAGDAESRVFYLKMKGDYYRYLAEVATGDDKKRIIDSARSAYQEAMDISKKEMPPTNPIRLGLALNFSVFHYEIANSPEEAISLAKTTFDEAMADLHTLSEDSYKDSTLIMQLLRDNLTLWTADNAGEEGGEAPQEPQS
Source text: (§1) Two orthogonal assays were developed for screening. For the primary assay, mass spectrometry (MS) was used to monitor the formation of the covalent bond between the compound and the native cysteine (Cys38 on 14-3-3σ) (Figure 1D). The assay was first performed in the absence of peptide to determine binding to 14-3-3σ only (apo screening, D1) and then in the presence of both 14-3-3σ and the peptide as an indication of how much the peptide stabilized compound binding (D2). […] As a secondary assay, fluorescence anisotropy (FA) was used. In this case, compounds were titrated to mixtures of 14-3-3σ and FAM-labeled peptides. […] Thus, the two assays are highly complementary; the MS assay reports on compound binding and the FA assay reports on peptide binding. […]
(§2) Mass spectrometry dose response assays were performed on a Waters Acquity UPLC/ Xevo G2-XS Q-Tof mass spectrometer. A Waters UPLC Protein BEH-C4 Column (300 Å, 1.7 μm, 2.1 mm x 50 mm) was used to desalt the samples prior to application on the mass spectrometer. For 19-point MS dose responses, 50 mM compound stocks in DMSO were serially diluted in 3-fold increment in a master plate, then 1000 nl of the compounds were transferred in the assay plates. Master mixes containing 100 nM full-length wild type 14-3-3σ in the absence or presence of […]
(§3) Assay buffer was TRIS (10 mM, pH 8.0) and final volume per well was 50 μl, with final top concentration of compounds dose response series at 1 mM. The reaction mixtures were incubated for 1h at rt before subjected to MS. Four measurements (1h, 8h, 16h, 24h) were performed for time-course experiments. The injection volume for each sample was 6 μl. 24 μl of sample were needed for the time-course experiments, so the total volume in the assay plate was adjusted to 50 μl, to account for the dead volume in the injections. Data collection and automated processing followed a custom workflow, as previously described.1 z Plots were created using GraphPad Prism with the log(agonist) vs. response (variable slope, four parameters) fitting model. […]

[2] = target: T2, 14-3-3σ/C-RAF (Homo sapiens, UniProt P31947); assay: Mass spectrometry dose response, compound binding to 14-3-3σ in the presence of C-RAF phosphopeptide; details: 100 nM compound, 100 nM 14-3-3σ, C-RAF peptide 18 µM
T2 construct: The 14-3-3 σ isoform (full-length for mass spectrometry and fluorescence anisotropy assays, ΔC for crystallography); made in house; host or cells: E. coli Rosetta 2(DE3)pLysS, pPROEX HTb vector
T2 sequence (P31947 1-248): T1 sequence (P31947 1-248)
Source text: as §1, §2, §3

[3] = target: T2, 14-3-3σ/C-RAF; assay: Fluorescence anisotropy compound titration, FAM-labeled C-RAF peptide; format: binding; details: 10 nM C-RAF-FAM labeled peptide, 5 µM 14-3-3σ, overnight incubation; read-out: EC50 value C-RAF (FA compound titration)
Source text: as §1
(§4) diluted in buffer (10 mM HEPES, pH 7.5, 150 mM NaCl, 0.1% Tween20, 1 mg/mL Bovine Serum Albumin (BSA; Sigma-Aldrich). Final DMSO in the assay was always 1%. Dilution series of 14-3-3 proteins or compounds were made in […]
(§5) Compound titrations were made by titrating the compound in a 2-fold dilution series (starting at 500 or 1000 µM) to a mix of fluorescein-labeled peptide (10 nM) and 14-3-3σ (concentration at approximately the EC20 to EC30 value of the protein-peptide complex; 1 µM for ERα and 5 µM for C-RAF). Using the ~EC25 value makes the assay sensitive for measuring an increase in PPI formation. Fluorescence anisotropy measurements were performed directly and after overnight incubation at room temperature. […]
(§6) Wells containing only FAM-peptide were used to set as G-factor at 35 mP. Data reported are at endpoint. EC50 and apparent Kd values were obtained from fitting the data with a four-parameter logistic model (4PL) in GraphPad Prism 7 for Windows. Data was obtained and averaged based on either three (compound titrations) or two (protein titrations) independent experiments.

[4] = target: T3, 14-3-3σ/ERα (Homo sapiens, UniProt P03372+P31947); assay: Fluorescence anisotropy compound titration, FAM-labeled ERα peptide; format: binding; details: 10 nM ERα-FAM labeled peptide, 1 µM 14-3-3σ, overnight incubation (24 h); read-out: EC50 value ERα (FA compound titration)
T3 construct: The 14-3-3 σ isoform (full-length for mass spectrometry and fluorescence anisotropy assays, ΔC for crystallography); made in house; host or cells: E. coli Rosetta 2(DE3)pLysS, pPROEX HTb vector
Source text: as §1, §4, §5, §6

[5] = target: T3, 14-3-3σ/ERα; assay: Mass spectrometry dose response, compound binding to 14-3-3σ in the presence of ERα phosphopeptide; details: 100 nM compound, 100 nM 14-3-3σ, ERα-peptide 2 µM
Source text: as §1, §2, §3

| Percentage (%) bound of compound to 14-3-3σ, APO 1h [1] | Percentage (%) bound of compound to 14-3-3σ, APO 8h [1] | Percentage (%) bound of compound to 14-3-3σ, APO 16h [1] | Percentage (%) bound of compound to 14-3-3σ, APO 24h [1] | Percentage (%) bound of compound to 14-3-3σ, CRAF 1h [2] | Percentage (%) bound of compound to 14-3-3σ, CRAF 8h [2] | Percentage (%) bound of compound to 14-3-3σ, CRAF 24h ([2]; 24h) | Percentage (%) bound of compound to 14-3-3σ, CRAF 24h ([2]; head prints 24h) | EC50 [3] | EC50 [4] | Percentage (%) bound of compound to 14-3-3σ, ERα 1h [5] | Percentage (%) bound of compound to 14-3-3σ, ERα 8h [5] | Percentage (%) bound of compound to 14-3-3σ, ERα 16h [5] | Percentage (%) bound of compound to 14-3-3σ, ERα 24h [5] | Compound |
| --- | --- | --- | --- | --- | --- | --- | --- | --- | --- | --- | --- | --- | --- | --- |
| 0% | 0% | 0% | 0% | 0.1% | 0.1% | 2.3% | 0.1% | > 150 µM | 68 ± 2 µM | 0% | 0.9% | 1.1% | 1.7% | O=C(CCl)NCC1CCN(C(=O)C2(Oc3ccc(Cl)cc3)CC2)CC1 [compound 93] |
| 0.3% | 0.4% | 0.8% | 5.9% | 1.0% | 1.7% | 5.5% | 5.1% | 101 ± 15 µM | 15 ± 1 µM | 1.0% | 2.5% | 5.8% | 21.3% | O=C(CCl)NCC1CCN(C(=O)C2(Nc3ccc(Cl)cc3)CC2)CC1 [compound 97] |
| 4.7% | 7.4% | 7.8% | 8.0% | 0% | 0% | 0% | 0% | – | 16 ± 1 µM | 23.1% | 44.7% | 76.1% | 88.8% | O=C(CCl)NCCCC1CCN(C(=O)C2(Nc3ccc(Cl)cc3)CCNCC2)CC1 [compound 153] |
| 18.0% | 35.7% | 70.7% | 95.1% | 54.7% | 62.3% | 99.4% | 92.0% | – | 5 ± 0.3 µM | 81.1% | 97.0% | 100% | 100% | O=C(CCl)CCC1CCN(C(=O)C2(Nc3ccc(Cl)cc3)CCOCC2)CC1 [compound 156] |

Continued, compound first:

| Compound | Percentage (%) bound of compound to 14-3-3σ, APO 1h [1] | Percentage (%) bound of compound to 14-3-3σ, APO 8h [1] | Percentage (%) bound of compound to 14-3-3σ, APO 16h [1] | Percentage (%) bound of compound to 14-3-3σ, APO 24h [1] | Percentage (%) bound of compound to 14-3-3σ, CRAF 1h [2] | Percentage (%) bound of compound to 14-3-3σ, CRAF 8h [2] | Percentage (%) bound of compound to 14-3-3σ, CRAF 24h ([2]; 24h) | Percentage (%) bound of compound to 14-3-3σ, CRAF 24h ([2]; head prints 24h) | EC50 [3] | EC50 [4] | Percentage (%) bound of compound to 14-3-3σ, ERα 1h [5] | Percentage (%) bound of compound to 14-3-3σ, ERα 8h [5] | Percentage (%) bound of compound to 14-3-3σ, ERα 16h [5] | Percentage (%) bound of compound to 14-3-3σ, ERα 24h [5] |
| --- | --- | --- | --- | --- | --- | --- | --- | --- | --- | --- | --- | --- | --- | --- |
| CC(C)(Oc1ccc(Cl)cc1)C(=O)N1CCC(NC(=O)CCl)CC1 [compound 26] | 0% | 0% | 0% | 0% | 0.0% | 1.0% | 4.3% | 2.6% | > 150 µM | > 150 µM | 0% | 0% | 0% | 1.8% |
| CC(C)(Oc1ccc(Cl)cc1)C(=O)N1CCC(CNC(=O)CCl)CC1 [compound 27] | 0.0% | 1.0% | 1.4% | 2.0% | 4.1% | 10.6% | 28.3% | 19.2% | 16 ± 4 µM | 19 ± 1 µM | 1.4% | 6.4% | 14.6% | 30.6% |
| CC(C)(Oc1ccc(Cl)cc1)C(=O)N1CCC(CCNC(=O)CCl)CC1 [compound 28] | 1.0% | 1.0% | 1.9% | 1.9% | 3.1% | 7.5% | 40.1% | 22.1% | 40 ± 1 µM | 24 ± 16 µM | 0.3% | 1.5% | 4.2% | 10.9% |
| CC(C)(Oc1ccc(Cl)cc1)C(=O)N1CCC(CCCNC(=O)CCl)CC1 [compound 29] | 0% | 0% | 0% | 0% | 1.0% | 1.0% | 18.9% | 7.1% | 142 ± 40 µM | 9 ± 0.4 µM | 0.4% | 1.0% | 3.1% | 11.0% |
| CC(C)(Nc1ccc(Cl)cc1)C(=O)N1CCC(CNC(=O)CCl)CC1 [compound 84] | 0% | 0% | 1.0% | 5.8% | 0.8% | 1.0% | 3.3% | 2.9% | > 150 µM | 55 ± 2 µM | 0.9% | 2.8% | 7.5% | 19.0% |
